Source: ChEMBL document CHEMBL2311503, “Synthesis and anti-angiogenic activity of benzothiazole, benzimidazole containing phthalimide derivatives” (Bioorg Med Chem Lett, 2013)
Calls of active or inactive are those of the source. The calls are words filed in the database; no cut-off is given here.

species: Gallus gallus; assay: Antiangiogenic activity in chicken embryo chorioallantoic membrane assessed as inhibition of growth of new vessels proximity at 10 uM after 6 hrs by CAM assay; format: functional, tissue-based

Row | Compound | inhibition
1 | O=C1c2ccccc2C(=O)N1c1nc2ccccc2[nH]1 | Active
2 | O=C1c2ccccc2C(=O)N1c1ccc2ncsc2c1 | Active
3 | Cc1ccc2c(c1)C(=O)N(c1nc3ccccc3s1)C2=O | Active
4 | O=C1c2ccccc2C(=O)N1c1nc2ccccc2s1 | Active
5 | O=C1c2ccccc2C(=O)N1c1cccc2nsnc12 | Active
